Data as given in ChEMBL document CHEMBL1138514, “Rhodamine inhibitors of P-glycoprotein: an amide/thioamide "switch" for ATPase activity” (J Med Chem, 2009).

Columns and labels:
[1] = target: MDR1 (ABCB1) (Homo sapiens, UniProt P08183); test: Induction of human histidine10-tagged MDR1 ATPase activity expressed in BHK cells relative to basal activity
[2] = target: MDR3 (ABCB1) (Mus musculus, UniProt P21447); test: Induction of mouse cysteine-less MDR3 ATPase activity relative to basal activity
[3] = target: ATP-dependent translocase ABCB1 (Mus musculus, UniProt P21447); test: Inhibition of verapamil-stimulated ATPase activity of mouse cysteine-less MDR3
ATP-dependent translocase ABCB1 (Mus musculus, UniProt P21447), sequence (P21447 whole entry, looked up): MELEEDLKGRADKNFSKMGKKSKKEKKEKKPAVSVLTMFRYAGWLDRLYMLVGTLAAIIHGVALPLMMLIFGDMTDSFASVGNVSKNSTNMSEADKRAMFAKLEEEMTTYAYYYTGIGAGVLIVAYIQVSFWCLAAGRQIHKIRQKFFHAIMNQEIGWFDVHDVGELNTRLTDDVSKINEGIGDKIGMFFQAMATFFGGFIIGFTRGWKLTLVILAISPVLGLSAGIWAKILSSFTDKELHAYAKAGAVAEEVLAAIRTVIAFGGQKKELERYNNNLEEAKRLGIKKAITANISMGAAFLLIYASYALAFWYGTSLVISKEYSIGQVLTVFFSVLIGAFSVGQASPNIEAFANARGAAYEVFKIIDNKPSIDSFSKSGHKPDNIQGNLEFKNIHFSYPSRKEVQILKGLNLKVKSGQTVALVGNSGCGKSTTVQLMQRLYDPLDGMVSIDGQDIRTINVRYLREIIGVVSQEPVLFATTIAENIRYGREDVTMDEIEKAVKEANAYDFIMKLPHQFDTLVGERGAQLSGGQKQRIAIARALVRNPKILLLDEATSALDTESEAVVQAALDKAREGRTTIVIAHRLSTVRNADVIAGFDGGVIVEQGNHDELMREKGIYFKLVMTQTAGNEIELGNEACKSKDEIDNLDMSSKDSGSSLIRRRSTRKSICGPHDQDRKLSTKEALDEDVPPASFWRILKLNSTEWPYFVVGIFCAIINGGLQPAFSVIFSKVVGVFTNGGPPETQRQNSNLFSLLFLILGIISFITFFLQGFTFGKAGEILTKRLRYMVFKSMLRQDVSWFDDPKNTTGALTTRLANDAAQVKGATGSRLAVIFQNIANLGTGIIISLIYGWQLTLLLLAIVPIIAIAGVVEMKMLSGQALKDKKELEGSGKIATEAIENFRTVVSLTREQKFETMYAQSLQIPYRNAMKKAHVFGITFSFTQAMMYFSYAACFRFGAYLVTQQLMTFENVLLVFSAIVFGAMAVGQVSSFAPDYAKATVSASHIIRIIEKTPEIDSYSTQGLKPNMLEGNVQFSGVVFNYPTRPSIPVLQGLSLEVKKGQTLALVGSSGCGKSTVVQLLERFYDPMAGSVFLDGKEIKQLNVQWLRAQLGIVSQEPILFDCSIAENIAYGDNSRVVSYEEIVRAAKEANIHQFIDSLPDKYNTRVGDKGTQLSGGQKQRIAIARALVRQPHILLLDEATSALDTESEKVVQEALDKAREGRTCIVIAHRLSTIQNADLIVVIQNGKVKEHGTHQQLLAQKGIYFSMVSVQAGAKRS

[4] = target: T1, ATP-dependent translocase ABCB1 (Homo sapiens, UniProt P08183); test: Inhibition of human MDR1 expressed in MDCK2 cells assessed as enhancement of Calcein-AM uptake treated 30 mins before Calcein-AM challenge measured after 20 mins
T1 sequence (P08183 whole entry): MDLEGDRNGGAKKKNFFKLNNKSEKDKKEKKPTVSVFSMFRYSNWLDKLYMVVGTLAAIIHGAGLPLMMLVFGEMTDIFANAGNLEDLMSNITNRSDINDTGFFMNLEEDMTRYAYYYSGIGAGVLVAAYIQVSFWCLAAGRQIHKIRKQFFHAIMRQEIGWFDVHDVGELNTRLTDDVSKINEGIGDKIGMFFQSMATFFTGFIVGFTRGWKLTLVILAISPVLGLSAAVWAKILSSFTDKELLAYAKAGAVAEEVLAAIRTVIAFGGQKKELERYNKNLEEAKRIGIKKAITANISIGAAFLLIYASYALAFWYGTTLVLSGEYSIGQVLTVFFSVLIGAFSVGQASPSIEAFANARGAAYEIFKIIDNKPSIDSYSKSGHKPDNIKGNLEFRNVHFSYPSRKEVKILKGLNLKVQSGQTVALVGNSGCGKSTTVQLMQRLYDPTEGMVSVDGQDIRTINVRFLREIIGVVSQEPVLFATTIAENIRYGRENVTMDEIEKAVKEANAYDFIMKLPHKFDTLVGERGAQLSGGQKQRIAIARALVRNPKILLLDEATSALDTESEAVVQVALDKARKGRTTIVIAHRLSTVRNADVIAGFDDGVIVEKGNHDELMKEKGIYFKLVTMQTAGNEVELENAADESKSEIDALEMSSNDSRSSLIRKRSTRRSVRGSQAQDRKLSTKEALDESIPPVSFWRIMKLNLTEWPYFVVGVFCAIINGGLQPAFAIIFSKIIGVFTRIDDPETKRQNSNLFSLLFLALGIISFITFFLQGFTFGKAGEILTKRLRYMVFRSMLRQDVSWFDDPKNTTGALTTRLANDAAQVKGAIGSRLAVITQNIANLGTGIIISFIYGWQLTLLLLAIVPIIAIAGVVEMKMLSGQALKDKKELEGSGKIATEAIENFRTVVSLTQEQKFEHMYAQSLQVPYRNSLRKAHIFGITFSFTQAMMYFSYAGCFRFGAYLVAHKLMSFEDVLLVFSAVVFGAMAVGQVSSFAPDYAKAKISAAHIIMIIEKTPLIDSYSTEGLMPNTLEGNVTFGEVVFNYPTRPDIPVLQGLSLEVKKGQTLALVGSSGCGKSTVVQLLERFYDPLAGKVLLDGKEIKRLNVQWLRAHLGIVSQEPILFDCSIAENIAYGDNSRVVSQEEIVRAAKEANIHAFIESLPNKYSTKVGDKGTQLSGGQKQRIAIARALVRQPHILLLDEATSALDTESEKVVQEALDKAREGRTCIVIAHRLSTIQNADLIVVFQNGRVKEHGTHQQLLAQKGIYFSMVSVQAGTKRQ

[5] = target: T1, ATP-dependent translocase ABCB1; test: Inhibition of verapamil-stimulated ATPase activity of human histidine10-tagged MDR1 expressed in BHK cells
[6] = system: MDR1; test: (§1) Permeability from apical to basolateral side of MDCK2 cells over expressing MDR1 at 5 uM after 1 hr; details: dog, MDCK-MDR1
[7] = system: MDR1; test: (§2) Permeability from apical to basolateral side of MDCK2 cells over expressing MDR1 at 5 uM in presence LSN335984 pretreated for 30 mins measured after 1 hr; details: dog
[8] = system: MDR1; test: (§3) Permeability from basolateral to apical side of MDCK2 cells over expressing MDR1 at 5 uM after 1 hr; details: dog, MDCK-MDR1
[9] = system: MDR1; test: (§4) Permeability from basolateral to apical side of MDCK2 cells over expressing MDR1 at 5 uM in presence LSN335984 pretreated for 30 mins measured after 1 hr; details: dog
[10] = system: MDR1; test: (§5) Efflux ratio of permeability from apical to basolateral over basolateral to apical side in MDCK2 cells over expressing MDR1 at 5 uM after 1 hr; details: dog, MDCK-MDR1
[11] = system: MDR1; test: Efflux ratio of permeability from apical to basolateral over basolateral to apical side in MDCK2 cells over expressing MDR1 at 5 uM after 1 hr in presence LSN335984 pretreated for 30 mins measured after 1 hr; details: dog
[12] = Permeability from apical to basolateral side of MDCK2 cell monolayer over expressing MDR1 assessed as drug concentration associated with cell at 5 uM after 1 hr of drug washout by methanol; details: dog
[13] = Permeability from apical to basolateral side of MDCK2 cell monolayer over expressing MDR1 assessed as drug concentration associated with cell at 5 uM after 1 hr of drug washout by methanol in presence of LSN335984; details: dog
[14] = Ratio of permeability from apical to basolateral side after 1 hr of drug washout by methanol to apical to basolateral side in MDCK2 cell monolayer over expressing MDR1 at 5 uM after 1 hr of drug washout by methanol in presence LSN335984; details: dog, mdck-ii
[15] = Octanol-water partition coefficient, log P of the compound
[16] = as §5; details: dog, MDCK-MDR1, 1 h, 5 µM
[17] = as §1; details: dog, MDCK-MDR1, 1 h, 5 µM
[18] = as §2; details: dog, MDCK-MDR1, 1 h, 5 µM
[19] = as §3; details: dog, MDCK-MDR1, 1 h, 5 µM
[20] = as §4; details: dog, MDCK-MDR1, 1 h, 5 µM
[21] = human histidine10-tagged MDR1 expressed in BHK cells
[22] = MDCK-MDR1, with LSN335984 (concentration not stated)

MDR3 (ABCB1), sequence (P21447 whole entry): as the sequence (P21447 whole entry, looked up) above
MDR1 (ABCB1), sequence (P08183 whole entry): as the sequence (P08183 whole entry) above

Compound: CN(C)c1cccc(-c2c3ccc(=[N+](C)C)cc-3[te]c3cc(N(C)C)ccc23)c1
- fold induction [1, 21]: 5.5

Compound: CN(C)c1ccc2c(-c3ccc(N4CCOCC4)cc3)c3ccc(=[N+](C)C)cc-3[se]c2c1
- fold induction ([2]; mouse cysteine-less MDR3): < 1
- IC50 [3]: 23 µM
- fold induction [1, 21]: 3.3

Compound: CN(C)c1ccc(-c2c3ccc(=[N+](C)C)cc-3[se]c3cc(N(C)C)ccc23)cc1
- fold induction [2]: 2.3
- IC50 [3]: 21 µM
- fold induction ([1]; bhk): 6.8

Compound: C[N+](C)=c1ccc2c(-c3ccc(C(=S)N4CCCCC4)s3)c3cc4c5c(c3[se]c-2c1)CCCN5CCC4
- IC50 [4]: 5.3 µM

Compound: CN(C)c1ccc(-c2c3ccc(=[N+](C)C)cc-3sc3cc(N(C)C)ccc23)cc1
- fold induction ([2]; mouse cysteine-less MDR3): 1
- fold induction [1, 21]: 9

Compound: C[N+](C)=c1ccc2c(-c3ccccc3)c3cc4c5c(c3[se]c-2c1)CCCN5CCC4.F[P-](F)(F)(F)(F)F
- fold induction ([2]; mouse cysteine-less MDR3): 2.1
- IC50 [3]: 0.28 µM
- fold induction [1, 21]: < 1.5
- IC50 [5]: 2.3 µM
- Papp A→B at 1 h, 5 µM [6]: 1.6 ×10⁻⁶ cm/s
- Papp A→B at 1 h, 5 µM [7, 22]: 1.3 ×10⁻⁶ cm/s
- Papp B→A at 1 h, 5 µM [8]: 25 ×10⁻⁶ cm/s
- Papp B→A at 1 h, 5 µM [9, 22]: 1.2 ×10⁻⁶ cm/s
- efflux ratio at 1 h, 5 µM [10]: 15
- efflux ratio at 1 h, 5 µM [11, 22]: 0.9
- Activity ([12]; mdck-ii, 1 h): 32%
- Activity ([13]; mdck-ii, 1 h): 64%
- Ratio [14]: 2
- logP [15]: 2.4
- IC50 [4]: 4.9 µM

Compound: COc1cccc(-c2c3ccc(=[N+](C)C)cc-3sc3cc(N(C)C)ccc23)c1.[Br-]
- Activity ([13]; mdck-ii, 1 h): 56%
- logP [15]: 0.14

Compound: CN(C)c1ccc2c(-c3ccc(C(=O)O)s3)c3ccc(=[N+](C)C)cc-3sc2c1
- fold induction [1, 21]: 2.7

Compound: CN(C)c1ccc2c(-c3ccccc3)c3ccc(=[N+](C)C)cc-3[te]c2c1
- fold induction [1, 21]: 8.4

Compound: CN(C)c1ccc2c(-c3ccc(CCl)cc3)c3ccc(=[N+](C)C)cc-3oc2c1.[Br-] [TETRAMETHYLROSAMINE]
- fold induction ([2]; mouse cysteine-less MDR3): 3.7
- Papp A→B at 1 h, 5 µM [6]: 0.3 ×10⁻⁶ cm/s
- Papp A→B at 1 h, 5 µM [7, 22]: 1.4 ×10⁻⁶ cm/s
- Papp B→A at 1 h, 5 µM [8]: 101 ×10⁻⁶ cm/s
- Papp B→A at 1 h, 5 µM [9, 22]: 2.1 ×10⁻⁶ cm/s
- Ratio [16]: 338
- efflux ratio at 1 h, 5 µM ([11]; MDCK-MDR1): 1.6
- Activity ([12]; mdck-ii, 1 h): 14.5%
- Activity ([13]; mdck-ii, 1 h): 54%
- Ratio [14]: 4.3
- logP [15]: 1.1

Compound: CCN(CC)C(=O)c1ccccc1-c1c2ccc(=[N+](C)C)cc-2sc2cc(N(C)C)ccc12
- fold induction ([2]; mouse cysteine-less MDR3): 10.1

Compound: CN(C)c1ccc(-c2c3ccc(=[N+](C)C)cc-3[te]c3cc(N(C)C)ccc23)cc1
- fold induction [1, 21]: 4.5

Compound: COc1cccc(-c2c3ccc(=[N+](C)C)cc-3[se]c3cc(N(C)C)ccc23)c1
- fold induction ([2]; mouse cysteine-less MDR3): 6.4
- fold induction [1, 21]: 2.5

Compound: CN(C)c1ccc2c(CCCOc3ccccc3)c3ccc(=[N+](C)C)cc-3sc2c1
- fold induction ([2]; mouse cysteine-less MDR3): 6
- fold induction [1, 21]: 6.2

Compound: C[N+](C)=c1ccc2c(-c3ccc(C(=S)N4CCOCC4)s3)c3cc4c5c(c3sc-2c1)CCCN5CCC4
- IC50 [4]: 20 µM

Compound: CN(C)c1ccc2c(-c3ccc(N4CCOCC4)cc3)c3ccc(=[N+](C)C)cc-3sc2c1
- fold induction [1, 21]: 4.8

Compound: CN(C)c1ccc2c(-c3ccccc3)c3ccc(=[N+](C)C)cc-3[se]c2c1
- fold induction ([2]; mouse cysteine-less MDR3): 4
- fold induction [1, 21]: 7.2
- IC50 [4]: 11 µM

Compound: CN(C)c1ccc2c(-c3ccccc3C(=O)O)c3ccc(=[N+](C)C)cc-3sc2c1
- fold induction ([2]; mouse cysteine-less MDR3): 3.5

Compound: CN(C)c1cccc(-c2c3ccc(=[N+](C)C)cc-3sc3cc(N(C)C)ccc23)c1
- fold induction ([2]; mouse cysteine-less MDR3): 3.5
- fold induction [1, 21]: 7.7

Compound: C[N+](C)=c1ccc2c(-c3ccccc3)c3cc4c5c(c3[te]c-2c1)CCCN5CCC4
- fold induction [1, 21]: 3

Compound: CN(C)c1ccc(-c2c3ccc(=[N+](C)C)cc-3[se]c3c4c5c(cc23)CCCN5CCC4)cc1
- fold induction [1, 21]: < 1.5
- IC50 [5]: 6.8 µM

Compound: CCN(CC)C(=O)c1ccc(-c2c3ccc(=[N+](C)C)cc-3sc3cc(N(C)C)ccc23)s1
- fold induction ([2]; mouse cysteine-less MDR3): 10.6

Compound: CN(C)c1ccc2c(-c3ccc(C(=S)N4CCCCC4)s3)c3ccc(=[N+](C)C)cc-3[te]c2c1.F[P-](F)(F)(F)(F)F
- Papp A→B at 1 h, 5 µM [6]: 0.09 ×10⁻⁶ cm/s
- Papp A→B at 1 h, 5 µM ([7]; MDCK-MDR1): 0.12 ×10⁻⁶ cm/s
- Papp B→A at 1 h, 5 µM [8]: 2.2 ×10⁻⁶ cm/s
- Papp B→A at 1 h, 5 µM ([9]; MDCK-MDR1): 0.2 ×10⁻⁶ cm/s
- efflux ratio at 1 h, 5 µM [10]: 24
- efflux ratio at 1 h, 5 µM ([11]; MDCK-MDR1): 1.7
- Activity ([12]; MDCK-MDR1, 1 h): 12%

Compound: COc1ccc(-c2c3ccc(=[N+](C)C)cc-3sc3cc(N(C)C)ccc23)cc1OC.F[P-](F)(F)(F)(F)F
- fold induction ([2]; mouse cysteine-less MDR3): 3
- fold induction [1, 21]: 8.2
- Activity ([12]; mdck-ii, 1 h): 16%
- Activity ([13]; mdck-ii, 1 h): 53%
- logP [15]: 0.28

Compound: COC(=O)c1ccccc1-c1c2ccc(=[N+](C)C)cc-2sc2cc(N(C)C)ccc12
- fold induction ([2]; mouse cysteine-less MDR3): 6

Compound: C[N+](C)=c1ccc2c(-c3ccc(C(=S)N4CCCCC4)s3)c3cc4c5c(c3[te]c-2c1)CCCN5CCC4
- IC50 [4]: 14 µM

Compound: C[N+](C)=c1ccc2c(-c3ccc(C(=S)N4CCCCC4)s3)c3cc4c5c(c3sc-2c1)CCCN5CCC4.F[P-](F)(F)(F)(F)F
- permeability [17]: 0.08 ×10⁻⁶ cm/s
- permeability [18]: 0.08 ×10⁻⁶ cm/s
- permeability [19]: 5 ×10⁻⁶ cm/s
- permeability [20]: 0.16 ×10⁻⁶ cm/s
- Activity ([12]; MDCK-MDR1, 1 h): 23%
- Activity ([13]; MDCK-MDR1, 1 h): 30%
- logP [15]: 2.7

Compound: CN(C)c1ccc2c(-c3ccsc3C(=O)O)c3ccc(=[N+](C)C)cc-3sc2c1
- fold induction [1, 21]: 4.3

Compound: COc1cccc(-c2c3ccc(=[N+](C)C)cc-3[te]c3cc(N(C)C)ccc23)c1
- fold induction [1, 21]: 5.7

Compound: CN(C)c1ccc2c(-c3ccc(C(=S)N4CCCCC4)s3)c3ccc(=[N+](C)C)cc-3sc2c1
- IC50 [3]: 32 µM
- logP [15]: 1.7

Compound: CN(C)c1cccc(-c2c3ccc(=[N+](C)C)cc-3[se]c3cc(N(C)C)ccc23)c1
- fold induction [1, 21]: 7.6

Compound: CCOC(=O)c1ccc(-c2c3ccc(=[N+](C)C)cc-3sc3cc(N(C)C)ccc23)s1
- fold induction ([2]; mouse cysteine-less MDR3): 2.9

Compound: CN(C)c1cccc(-c2c3ccc(=[N+](C)C)cc-3[se]c3c4c5c(cc23)CCCN5CCC4)c1
- fold induction [1, 21]: < 1.5
- IC50 [5]: 23.6 µM

Compound: CCN(CC)C(=O)c1ccc(-c2c3ccc(=[N+](C)C)cc-3[se]c3cc(N(C)C)ccc23)s1.F[P-](F)(F)(F)(F)F
- fold induction ([2]; mouse cysteine-less MDR3): 10.1
- fold induction [1, 21]: 10.5
- Activity ([12]; mdck-ii, 1 h): 11%
- Activity ([13]; mdck-ii, 1 h): 24%
- logP [15]: -0.39

Compound: CN(C)c1ccc2c(-c3ccc(C(=O)O)s3)c3ccc(=[N+](C)C)cc-3[te]c2c1
- fold induction [1, 21]: 1.8

Compound: CN(C)c1ccc2c(-c3ccsc3C(=O)O)c3ccc(=[N+](C)C)cc-3[se]c2c1
- fold induction ([2]; mouse cysteine-less MDR3): 1.7
- fold induction [1, 21]: 2.1

Compound: C[N+](C)=c1ccc2c(-c3ccc(C(=S)N4CCOCC4)s3)c3cc4c5c(c3[se]c-2c1)CCCN5CCC4
- IC50 [4]: 14 µM
